The target in data set [1] is PDGFR-β (Homo sapiens, UniProt P09619). Nature of the data set: Kinase inhibition, whole-cell assay, PDGFR-β. Format: cell-based. The following applies: Table 1; IC50 ± SD; read-out: Kinase inhibition IC50 [whole-cell assays] PDGFR-β.
In data set [2] the target is EGFR (Homo sapiens, UniProt P00533). Nature of the data set: Kinase inhibition, whole-cell assay, EGFR. Format: cell-based. The following applies: Table 1; IC50 ± SD; read-out: Kinase inhibition IC50 [whole-cell assays] EGFR.
Chain of EGFR (P00533 25-1210, species assumed): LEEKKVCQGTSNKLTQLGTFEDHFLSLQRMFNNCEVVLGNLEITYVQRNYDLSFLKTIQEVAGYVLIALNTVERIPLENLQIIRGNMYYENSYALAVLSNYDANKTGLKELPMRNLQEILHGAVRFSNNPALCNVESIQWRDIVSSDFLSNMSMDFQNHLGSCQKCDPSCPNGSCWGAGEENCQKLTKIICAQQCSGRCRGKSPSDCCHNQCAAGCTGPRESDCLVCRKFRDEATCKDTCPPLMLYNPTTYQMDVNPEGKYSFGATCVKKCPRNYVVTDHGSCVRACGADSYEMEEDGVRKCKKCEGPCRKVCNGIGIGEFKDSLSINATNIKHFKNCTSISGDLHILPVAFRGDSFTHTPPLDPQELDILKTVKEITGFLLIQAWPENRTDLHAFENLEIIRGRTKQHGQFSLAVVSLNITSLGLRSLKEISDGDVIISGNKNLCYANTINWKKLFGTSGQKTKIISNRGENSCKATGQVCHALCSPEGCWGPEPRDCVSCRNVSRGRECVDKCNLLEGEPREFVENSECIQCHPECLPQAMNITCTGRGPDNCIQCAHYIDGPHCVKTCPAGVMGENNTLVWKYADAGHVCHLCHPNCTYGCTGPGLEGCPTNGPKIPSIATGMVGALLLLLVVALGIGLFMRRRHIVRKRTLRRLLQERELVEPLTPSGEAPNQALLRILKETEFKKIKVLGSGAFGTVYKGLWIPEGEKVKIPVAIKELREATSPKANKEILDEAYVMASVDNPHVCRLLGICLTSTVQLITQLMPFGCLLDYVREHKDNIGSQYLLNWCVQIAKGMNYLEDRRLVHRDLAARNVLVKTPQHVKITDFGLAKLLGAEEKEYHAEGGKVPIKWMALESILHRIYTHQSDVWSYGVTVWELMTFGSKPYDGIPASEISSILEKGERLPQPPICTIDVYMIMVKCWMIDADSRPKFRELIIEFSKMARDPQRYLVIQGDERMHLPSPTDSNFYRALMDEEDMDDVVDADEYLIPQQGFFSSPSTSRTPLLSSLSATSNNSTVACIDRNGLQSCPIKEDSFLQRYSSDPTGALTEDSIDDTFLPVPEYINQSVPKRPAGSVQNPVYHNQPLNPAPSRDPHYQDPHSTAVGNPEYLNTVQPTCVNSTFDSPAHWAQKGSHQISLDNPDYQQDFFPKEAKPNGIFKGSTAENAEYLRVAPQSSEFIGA
Data set [3] relates to MDA-MB-435 cancer cells. Nature of the data set: Antiproliferative effect in MDA-MB-435 cancer cells (SRB assay). The settings on record: Table 2, read-out: MDA-MB-435 IC50. Format: cell-based.
Data set [4] has as its system A-10 cells. Briefly: Microtubule depolymerization, cell-based phenotypic assay in A-10 cells.
In data set [5] the test system is NCI/ADR resistant tumor model. Briefly: NCI/ADR-RES xenograft trial (resistant tumor model). It is filed as in vivo, mice. The following applies: day 11, AG165 75 mg/kg. The text has this: AG165 in MDA-MB-435 xenograph model:
Data set [6] concerns A431.
The subject of data set [7] is MDA-MB-435 xenograft. Briefly: MDA-MB-435 xenograft trial. The following applies: for adverse effects / toxicity in xenograft trial: cumulative dosing; for antitumor effects: MDA-MB-435 xenograft.
Data set [8] has as its system MDA-MB-231 xenograft. Briefly: MDA-MB-231 xenograft trial.
The subject of data set [9] is PC43-10 (RFC). Briefly: Proliferation inhibition, RFC-expressing PC43-10 cells. Format: cell-based, Chinese hamster. The following applies: Table 11. The text has this:
(§1) AGF215, AGF234 and AGF263 were compared to AGF23 as inhibitors of proliferation of engineered Chinese hamster ovary (CHO) cells expressing human PCFT (R2/PCFT4), FRα (RT16), or RFC (PC43-10).

The subject of data set [10] is RT16 (FRα). Briefly: Proliferation inhibition, FRα-expressing RT16 cells. Format: cell-based, Chinese hamster.
From the text: as §1

For data set [11], the system named is D4 (FRβ). Briefly: Proliferation inhibition, FRβ-expressing D4 cells. Format: cell-based.
Data set [12] has as its system KB (RFC/FRα/PCFT). Nature of the data set: Growth inhibition of KB tumor cells. Format: cell-based, human. As to the method: Cell proliferation was assayed with CellTiter-Blue™ with a fluorescent plate reader.
The test system of data set [13] is purified tubulin. Briefly: Inhibition of tubulin assembly (Section II). The following applies: Table 5; Section II compounds; read-out: Inhibition of tubulin assembly IC50 ± SD. It is filed as biochemical. How it is done: The effects of 3, 4, 6, 7 and 9 on the polymerization of purified tubulin were evaluated (Table 5). This allows a study of the direct interaction of these compounds with their intracellular target. The ability of these compounds to bind to the colchicine site on tubulin was evaluated by measuring inhibition of [^3H]colchicine binding to tubulin.

Data set [14] deals with Parental SK-OV-3. Briefly: Antiproliferative activity, parental SK-OV-3. Format: cell-based. The following applies: Homo sapiens, Table 6, read-out: IC50 ± SD Parental SK-OV-3.
In data set [15] the test system is Pgp expressing SK-OV-3 MDR1-6-6. Nature of the data set: Antiproliferative activity, Pgp expressing SK-OV-3 MDR1-6-6. The settings on record: Homo sapiens. Format: cell-based.
Data set [16] has as its system Parental HeLa. Nature of the data set: Antiproliferative activity, parental HeLa. Format: cell-based. The settings on record: Homo sapiens, Table 7, read-out: IC50 ± SD Parental HeLa. The text has this: (§2) Another clinically relevant drug resistance mechanism of tubulin-targeting agents is the overexpression of the βIII isotype of tubulin.
Data set [17] concerns tubulin (colchicine site). Nature of the data set: Inhibition of [3H]colchicine binding to tubulin (Section III). The following applies: 5 μM; Section III compounds.
The subject of data set [18] is Parental OVCAR-8. Briefly: Antiproliferative effect, parental OVCAR-8 (SRB assay). It is filed as cell-based. The settings on record: Homo sapiens, Table 10, n = 3, read-out: IC50 ± SD Parental OVCAR-8.
Data set [19] relates to P-gp Overexpressing NCI/ADR-RES. Briefly: Antiproliferative effect, P-gp overexpressing NCI/ADR-RES (SRB assay). The settings on record: Homo sapiens, read-out: IC50 ± SD P-gp Overexpressing NCI/ADR-RES.
Data set [20] relates to β-III overexpressing HeLa. Briefly: Antiproliferative activity, β-III overexpressing HeLa. It is filed as cell-based. The settings on record: Homo sapiens, HeLa; Table 7; read-out: IC50 ± SD β-III overexpressing HeLa.
From the text: as §2

A short description of data set [21]: Metabolite identification of 3 with human liver microsomes by LC/MS/MS. It is filed as in vitro ADME. An excerpt: Compound 3 (Table 4), the para-methylthiophenyl substituted cyclopenta[d]pyrimidne, was designed to decrease the possible demethylation. […] Thus, the methylsulfinyl analog 4 (Table 4) and the methylsulfonyl analog 5 (Table 4) were also synthesized to determine their antiproliferative potencies. […] The electron donating, para-methylamino moiety of 8 (Table 1) and the para-dimethylamino moiety of 9 (Table 4) were designed as isosteric replacements of the O-methoxy moiety. According to the literature,^7 8 should be the major metabolite of 9. […] Compound 13 (Table 4), replaced the phenyl ring with a cyclohexyl ring to determine the importance of π-stacking interaction of the aniline ring. The variations proposed of compounds 10-13 would also serve as structural means to decrease the O-demethylation. […] Similarly, 9 could also function as a potential long acting agent, since the metabolites of both 3 and 9 are anticipated to be potent compounds against tumor cells. Section II Compounds Chemistry:
FIG. 7a) HPLC spectra of 3 incubated with human liver microsomes at 0 and 60 min. Metabolites M1-M5 and parent 3 were illustrated on the spectra. FIG. 7b) MS and MS/MS spectrum of 3. FIG. 7c) MS and MS/MS spectrum of M1 (compound 5). FIG. 7d) MS and MS/MS spectrum of M2 (compound 4). FIG. 7e) Fragmentation of M1 and M2 (MS/MS 239.1340).

Where [22] appears, read: IP 75 mg/kg, listed as AG 165, 75 mg/kg.
Where [23] appears, read: with folic acid (+FA), read-out: IC50 FRα RT16 (+FA).
Setting [24] is: Table 11, read-out: IC50 FRβ D4.
Setting [25] is: with folic acid (+FA), read-out: IC50 FRβ D4 (+FA).
The mark [26] stands for this setting: Table 11, read-out: IC50 RFC/FRα/PCFT KB.
The mark [27] stands for this setting: with folic acid (+FA), read-out: IC50 RFC/FRα/PCFT KB (+FA).

Entries after “also recorded” stand apart in the source; their conditions may differ. Where two headings read alike, the source gives them in different places.

Chain of PDGFR-β (P09619 33-1106, species assumed): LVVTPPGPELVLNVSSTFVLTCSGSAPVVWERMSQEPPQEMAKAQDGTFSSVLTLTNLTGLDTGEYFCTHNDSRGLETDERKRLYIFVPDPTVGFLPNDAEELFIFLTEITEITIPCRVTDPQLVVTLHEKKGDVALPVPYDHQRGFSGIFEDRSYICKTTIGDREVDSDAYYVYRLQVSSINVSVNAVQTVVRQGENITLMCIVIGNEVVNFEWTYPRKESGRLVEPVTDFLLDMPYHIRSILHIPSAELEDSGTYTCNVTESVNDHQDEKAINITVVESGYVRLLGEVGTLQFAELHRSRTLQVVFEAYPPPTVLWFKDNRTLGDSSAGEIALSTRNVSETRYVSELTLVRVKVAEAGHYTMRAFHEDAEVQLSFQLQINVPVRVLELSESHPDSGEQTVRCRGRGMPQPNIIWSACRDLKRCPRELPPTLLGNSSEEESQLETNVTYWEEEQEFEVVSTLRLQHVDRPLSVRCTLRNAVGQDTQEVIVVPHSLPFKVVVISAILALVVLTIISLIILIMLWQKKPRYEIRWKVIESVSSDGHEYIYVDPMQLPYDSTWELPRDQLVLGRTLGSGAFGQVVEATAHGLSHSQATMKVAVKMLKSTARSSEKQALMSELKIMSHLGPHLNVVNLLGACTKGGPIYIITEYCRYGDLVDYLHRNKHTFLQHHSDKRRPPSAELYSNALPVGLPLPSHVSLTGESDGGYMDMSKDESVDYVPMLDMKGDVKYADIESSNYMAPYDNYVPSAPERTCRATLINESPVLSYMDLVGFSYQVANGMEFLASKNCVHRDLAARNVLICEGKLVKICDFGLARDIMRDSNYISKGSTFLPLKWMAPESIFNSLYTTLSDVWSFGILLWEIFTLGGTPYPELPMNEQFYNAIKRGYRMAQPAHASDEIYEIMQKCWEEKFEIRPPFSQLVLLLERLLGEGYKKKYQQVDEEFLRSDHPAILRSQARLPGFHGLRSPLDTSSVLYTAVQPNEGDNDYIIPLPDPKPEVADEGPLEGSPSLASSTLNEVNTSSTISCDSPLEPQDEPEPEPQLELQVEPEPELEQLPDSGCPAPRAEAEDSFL

For the compound `CCCn1ccc2nc(C)nc(N(C)c3ccc(OC)cc3)c21.Cl` [3•HCl], the IC50 was > 200 nM in data set [1], 89.3 ± 9.2 nM in [2], 8.8 ± 3.4 nM in data set [3] and 107 ± 18 nM in [6]. Also, in data set [4] (Table 2, read-out: Microtubule depolymerization EC50), the EC50 was found to be 20 nM. Besides, the “tumor volume vs control treated mice” value in [5] (p=0.0003) is “significantly smaller”. In [5] (p=0.0333), the “tumor volume vs PTX (10 mg/kg) treated mice” value was “significantly smaller”. Besides, the “final average tumor mass compared to the vehicle” value in data set [7] (Day 15, IP 75 mg/kg) is recorded as “statistically significant (p<0.001) lower final average tumor mass”. Also, in data set [7] (IP 75 mg/kg, compared to the vehicle), the mouse weight change result is “recoverable weight loss”. Also, the “adverse effects / toxicity in xenograft trial” value in data set [7] (IP 75 mg/kg, 75 mg/kg) is reported as “did not induce any noticeable adverse effects or toxicities; also recorded: no apparent toxicity”; in data set [7] (setting [22]) it was “no evidence of effects on either central or peripheral nervous system”. Also, the “tumor growth during the trial” value in [7] (IP 75 mg/kg, nude mice) is “inhibited tumor growth”. The antitumor effects entry is listed as “statistically significant antitumor effects (p<0.001)” in data set [7] (IP 75 mg/kg, 75 mg/kg); “highly statistically significant (p<0.001) antitumor effects” in data set [7] (setting [22]); “statistically significant antitumor effects comparable to paclitaxel” in [8] (MDA-MB-231 xenograft, 3.HCl 75 mg/kg IP, paclitaxel 10 mg/kg IP). Further, the tumors vs control result in [7] (days 9, 11 and 15, 75 mg/kg, p<0.01 days 9 and 11, p<0.0001 day 15) is “significantly smaller”; in data set [8] (days 10 and 15, 75 mg/kg, p<0.01 and p<0.0001) it was “significantly smaller”.
Regarding `Nc1nc2[nH]c(CCCOc3ccc(C(=O)N[C@@H](CCC(=O)O)C(=O)O)cc3)cc2c(=O)[nH]1` [AGF215], the IC50 is > 1000 nM in data set [9]; > 1000 nM in [10] (setting [23]); 3.8 nM in data set [11] (setting [24]); > 1000 nM in data set [11] (setting [25]); 1.54 nM in [12] (setting [26]); 767 nM in [12] (setting [27]). In addition, the “IC50 RFC PC43-10” value in data set [9] is “inactive”.
Consider `Nc1nc2[nH]c(CCCNc3ccc(C(=O)N[C@@H](CCC(=O)O)C(=O)O)cc3)cc2c(=O)[nH]1` [AGF234], for which the IC50 in data set [9] stood at 670 nM; in [10] (Table 11, read-out: IC50 FRα RT16) it was 1.4 nM; in data set [10] (setting [23]), 136 nM; in [11] (setting [24]), 0.84 nM; in [11] (setting [25]), 316 nM; in data set [12] (setting [26]) it was 0.74 nM. Moreover, the IC50 in data set [12] (setting [27]) amounted to 938 nM. Further, the “IC50 RFC PC43-10” value in data set [9] was “low level of activity”.
Take `COc1ccc(/C=C\c2cc(OC)c(OC)c(OC)c2)cc1O` [CA-4, combretastatin A-4]: the IC50 in [3] (Homo sapiens, MDA-MB-435) was found to be 3.47 ± 0.6 nM; in data set [13], […]; in [14], […]; in data set [15] (SK-OV-3, read-out: IC50 ± SD Pgp expressing SK-OV-3 MDR1-6-6) it was 6.6 ± 1.3 nM; in data set [16] it was 4.7 ± 0.2 nM; in [18], 6 ± 0.7 nM. Besides, in data set [19], the IC50 was 9 ± 2 nM. Besides, the EC50 in data set [4] (Rattus norvegicus, A10, Table 2, read-out: Microtubule depolymerization EC50) was 13.1 nM. Further, in data set [17], the “Inhibition of colchicine binding (% inhibition ± SD)” value came out at 97%.
With `CSc1ccc(N(C)c2nc(C)nc3c2CCC3)cc1` [Compound 3], in [4] (Rattus norvegicus, A10, read-out: EC50 in A-10 cells (Concentration that causes 50% tubulin loss in A-10 cells), Table 4, Section II compounds), the EC50 came to 12.6 nM. For the same compound, the IC50 in [14] is 7.2 ± 0.6 nM; in data set [15] (SK-OV-3, Table 6, read-out: IC50 ± SD Pgp expressing SK-OV-3 MDR1-6-6), 9.28 ± 0.42 nM; in [16] it was 6.95 ± 0.53 nM; in data set [20] it was 5.26 ± 0.78 nM; in [18], 500 ± 100 nM; in [19], 210 ± 10 nM.
Take `Cc1nc2c(c(N(C)c3ccc([S+](C)[O-])cc3)n1)CCC2` (centres unmarked) [Section II compound 4]: the “MS Peak Area in 60 min sample, HPLC area” value in data set [21] is recorded as 2,199,500.
Regarding `Cc1nc2c(c(N(C)c3ccc(S(C)(=O)=O)cc3)n1)CCC2` [Section II compound 5], in [21] (Section II compound 3 incubated with human liver microsomes, 60 min), the “MS Peak Area in 60 min sample, HPLC area” value is recorded as 98,900. In addition, the “MS Peak Area in 60 min sample, Percentage (%)” value in [21] (Section II compound 3 incubated with human liver microsomes, 60 min, parent and metabolites) is 2.2%.
`CC(=O)O[C@H]1C(=O)[C@@]2(C)[C@H]([C@H](OC(=O)c3ccccc3)[C@]3(O)C[C@H](OC(=O)[C@H](O)[C@@H](NC(=O)c4ccccc4)c4ccccc4)C(C)=C1C3(C)C)[C@]1(OC(C)=O)CO[C@@H]1C[C@@H]2O` [paclitaxel]: the IC50 in [18] was found to be 10 nM; in [19], 5000 nM.

The record behind these values is patent US10239880B2, “Cyclopenta[d]pyrimidines and substituted cyclopenta[d]pyrimidines as antitubulin and microtubule targeting agents, monocyclic pyrimidines as tubulin inhibitors, and pyrrolopyrimidines as targeted antifolates and tubulin and multiple receptor tyrosine kinase inhibition and antitumor agents” (Duquesne University of the Holy Spirit, priority 2015, dated 2019).
